Laboratory results from PubChem BioAssay (NCI).
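All cell lines were grown in 96-well plates and treated with compound for 48 hours. Definition used: TGI = concentration required for complete inhibition of growth.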

Tests used:
Assay in all cases: NCI tumour cell line growth inhibition, 48 h
PC-3 prostate = system: PC-3 prostate
EKVX NSCLC = system: EKVX NSCLC
HCT-116 colon = system: HCT-116 colon
SK-MEL-2 melanoma = system: SK-MEL-2 melanoma
OVCAR-5 ovarian = system: OVCAR-5 ovarian
MDA-MB-435 = system: MDA-MB-435
SNB-19 CNS = system: SNB-19 CNS
A498 renal = system: A498 renal
BT-549 breast = system: BT-549 breast
T-47D breast = system: T-47D breast
MDA-N = system: MDA-N
OVCAR-4 ovarian = system: OVCAR-4 ovarian
HCC-2998 colon = system: HCC-2998 colon
NCI-H460 lung = system: NCI-H460 lung
LOX IMVI melanoma = system: LOX IMVI melanoma
RXF 393 renal = system: RXF 393 renal
DU-145 prostate = system: DU-145 prostate
MCF7 breast = system: MCF7 breast
CAKI-1 renal = system: CAKI-1 renal
TK-10 renal = system: TK-10 renal
SW-620 colon = system: SW-620 colon
786-0 renal = system: 786-0 renal
A549 NSCLC = system: A549 NSCLC
UACC-257 melanoma = system: UACC-257 melanoma
M14 melanoma = system: M14 melanoma
SR leukemia = system: SR leukemia
HT29 colon = system: HT29 colon
MDA-MB-231 breast = system: MDA-MB-231 breast
KM12 colon = system: KM12 colon
K-562 leukemia = system: K-562 leukemia
SK-MEL-28 melanoma = system: SK-MEL-28 melanoma
SK-MEL-5 melanoma = system: SK-MEL-5 melanoma
OVCAR-3 ovarian = system: OVCAR-3 ovarian
IGROV1 ovarian = system: IGROV1 ovarian
SK-OV-3 ovarian = system: SK-OV-3 ovarian
HL-60(TB) leukemia = system: HL-60(TB) leukemia
UACC-62 melanoma = system: UACC-62 melanoma
U251 CNS = system: U251 CNS
NCI-H23 lung = system: NCI-H23 lung
SF-268 CNS = system: SF-268 CNS
ACHN renal = system: ACHN renal
SF-295 CNS = system: SF-295 CNS
SN12C renal = system: SN12C renal
MOLT-4 leukemia = system: MOLT-4 leukemia
HOP-62 NSCLC = system: HOP-62 NSCLC
NCI-H226 lung = system: NCI-H226 lung
HOP-92 NSCLC = system: HOP-92 NSCLC
RPMI-8226 leukemia = system: RPMI-8226 leukemia
NCI/ADR-RES ovarian = system: NCI/ADR-RES ovarian
CCRF-CEM leukemia = system: CCRF-CEM leukemia
OVCAR-8 ovarian = system: OVCAR-8 ovarian
MALME-3M melanoma = system: MALME-3M melanoma
SNB-75 CNS = system: SNB-75 CNS
COLO 205 colon = system: COLO 205 colon
HCT-15 colon = system: HCT-15 colon
UO-31 renal = system: UO-31 renal
NCI-H522 lung = system: NCI-H522 lung
SF-539 CNS = system: SF-539 CNS

Cn1c2c(c3ccccc31)CC(=O)N1CCCC(C1)CC21OCCO1 (configuration not stated)
TGI (PC-3 prostate): > 100 µM | TGI (EKVX NSCLC): > 100 µM | TGI (HCT-116 colon): > 100 µM | TGI (SK-MEL-2 melanoma): > 100 µM | TGI (OVCAR-5 ovarian): > 100 µM | TGI (MDA-MB-435): > 100 µM | TGI (SNB-19 CNS): > 100 µM | TGI (A498 renal): > 100 µM | TGI (BT-549 breast): > 100 µM | TGI (T-47D breast): > 100 µM | TGI (MDA-N): > 100 µM | TGI (OVCAR-4 ovarian): > 100 µM | TGI (HCC-2998 colon): > 100 µM | TGI (NCI-H460 lung): > 100 µM | TGI (LOX IMVI melanoma): > 100 µM | TGI (RXF 393 renal): > 100 µM | TGI (DU-145 prostate): > 100 µM | TGI (MCF7 breast): > 100 µM | TGI (CAKI-1 renal): > 100 µM | TGI (TK-10 renal): > 100 µM | TGI (SW-620 colon): > 100 µM | TGI (786-0 renal): > 100 µM | TGI (A549 NSCLC): > 100 µM | TGI (UACC-257 melanoma): > 100 µM | TGI (M14 melanoma): > 100 µM | TGI (SR leukemia): > 100 µM | TGI (HT29 colon): > 100 µM | TGI (MDA-MB-231 breast): > 100 µM | TGI (KM12 colon): > 100 µM | TGI (K-562 leukemia): > 100 µM | TGI (SK-MEL-28 melanoma): > 100 µM | TGI (SK-MEL-5 melanoma): > 100 µM | TGI (OVCAR-3 ovarian): > 100 µM | TGI (IGROV1 ovarian): > 100 µM | TGI (SK-OV-3 ovarian): > 100 µM | TGI (HL-60(TB) leukemia): > 100 µM | TGI (UACC-62 melanoma): > 100 µM | TGI (U251 CNS): > 100 µM | TGI (NCI-H23 lung): > 100 µM | TGI (SF-268 CNS): > 100 µM | TGI (ACHN renal): > 100 µM | TGI (SF-295 CNS): > 100 µM | TGI (SN12C renal): > 100 µM | TGI (MOLT-4 leukemia): > 100 µM | TGI (HOP-62 NSCLC): > 100 µM | TGI (NCI-H226 lung): > 100 µM | TGI (HOP-92 NSCLC): > 100 µM | TGI (RPMI-8226 leukemia): > 100 µM | TGI (NCI/ADR-RES ovarian): > 100 µM | TGI (CCRF-CEM leukemia): > 100 µM | TGI (OVCAR-8 ovarian): > 100 µM | TGI (MALME-3M melanoma): > 100 µM | TGI (SNB-75 CNS): > 100 µM | TGI (COLO 205 colon): > 100 µM | TGI (HCT-15 colon): > 100 µM | TGI (UO-31 renal): > 100 µM

N#Cc1c(N)nc2c(N=Nc3ccccc3)c(N)nn2c1Nc1ccccc1
TGI (EKVX NSCLC): > 100 µM | TGI (HCT-116 colon): 27 µM | TGI (SK-MEL-2 melanoma): 48.2 µM | TGI (OVCAR-5 ovarian): 57.7 µM | TGI (MDA-MB-435): 39.6 µM | TGI (SNB-19 CNS): 39.9 µM | TGI (A498 renal): 59.1 µM | TGI (BT-549 breast): 50.6 µM | TGI (MDA-N): 38.5 µM | TGI (OVCAR-4 ovarian): 46.4 µM | TGI (NCI-H522 lung): 39.9 µM | TGI (NCI-H460 lung): 44.3 µM | TGI (LOX IMVI melanoma): 10.5 µM | TGI (RXF 393 renal): 29.2 µM | TGI (DU-145 prostate): 39.8 µM | TGI (CAKI-1 renal): 29.2 µM | TGI (TK-10 renal): 52.6 µM | TGI (SW-620 colon): 50.3 µM | TGI (786-0 renal): 38.5 µM | TGI (A549 NSCLC): 46.9 µM | TGI (UACC-257 melanoma): 38.9 µM | TGI (M14 melanoma): 31.5 µM | TGI (SR leukemia): 6.15 µM | TGI (HT29 colon): 31.4 µM | TGI (MDA-MB-231 breast): 47.6 µM | TGI (KM12 colon): 18.1 µM | TGI (K-562 leukemia): > 100 µM | TGI (SK-MEL-28 melanoma): 24.2 µM | TGI (SK-MEL-5 melanoma): 32.6 µM | TGI (OVCAR-3 ovarian): 35.1 µM | TGI (SF-539 CNS): 47.2 µM | TGI (IGROV1 ovarian): 29.3 µM | TGI (HL-60(TB) leukemia): 6.56 µM | TGI (U251 CNS): 24.6 µM | TGI (NCI-H23 lung): 21.6 µM | TGI (SF-268 CNS): 56.9 µM | TGI (ACHN renal): 61.9 µM | TGI (SF-295 CNS): 59.9 µM | TGI (SN12C renal): 27.7 µM | TGI (MOLT-4 leukemia): 7.97 µM | TGI (HOP-62 NSCLC): 39.1 µM | TGI (NCI-H226 lung): 53.9 µM | TGI (HOP-92 NSCLC): 31.6 µM | TGI (RPMI-8226 leukemia): 16.2 µM | TGI (NCI/ADR-RES ovarian): 53.9 µM | TGI (CCRF-CEM leukemia): > 100 µM | TGI (OVCAR-8 ovarian): 14.2 µM | TGI (MALME-3M melanoma): 49.7 µM | TGI (SNB-75 CNS): 70.3 µM | TGI (COLO 205 colon): 30.2 µM | TGI (HCT-15 colon): > 100 µM
